According to paper PMC5607274, “An iterative compound screening contest method for identifying target protein inhibitors using the tyrosine-protein kinase Yes” (Scientific Reports, 2017):

Molecular target: T1, human recombinant Yes [a.a. 2–543 (end)] (Homo sapiens, UniProt P07947)
T1 construct: human recombinant Yes [a.a; 2–543 (end)]; purchased BPS Bioscience 40488
Assay: ADP-Glo kinase assay, inhibition rates of Yes phosphorylation activity (first and second screening)
Type: biochemical
Conditions: first screening; mean of n = 4 wells; 10 μmol L−1 compound
Procedure, shortened: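 ADP-Glo luminescence measured inhibition of human recombinant Yes (a.a. 2–543) phosphorylation activity. In the first screen, each compound ran in 4 wells and inhibition rates were averaged. The second screen retested hits as compounds dissolved from fresh powder.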

T1 sequence (P07947 2-543): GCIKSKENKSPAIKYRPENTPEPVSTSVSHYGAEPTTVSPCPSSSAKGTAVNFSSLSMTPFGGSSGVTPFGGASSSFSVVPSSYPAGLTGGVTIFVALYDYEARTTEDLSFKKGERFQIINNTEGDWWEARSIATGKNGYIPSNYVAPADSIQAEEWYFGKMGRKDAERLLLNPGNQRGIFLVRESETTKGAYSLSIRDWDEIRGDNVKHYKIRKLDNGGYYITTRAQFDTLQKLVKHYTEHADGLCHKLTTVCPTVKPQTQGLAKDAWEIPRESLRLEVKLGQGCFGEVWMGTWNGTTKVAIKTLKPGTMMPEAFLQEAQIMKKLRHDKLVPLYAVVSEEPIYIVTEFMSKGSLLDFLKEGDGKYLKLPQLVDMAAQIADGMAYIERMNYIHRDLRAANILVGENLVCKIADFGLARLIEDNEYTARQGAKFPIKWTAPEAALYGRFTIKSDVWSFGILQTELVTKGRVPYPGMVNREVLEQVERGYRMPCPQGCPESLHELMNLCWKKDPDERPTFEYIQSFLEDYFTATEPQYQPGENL

First screening IR (inhibition rate) [%]	SMILES
-2	O=C(O)c1c2c(nc3ccccc13)/C(=C\c1ccc(O)c(Br)c1)CCC2 [Compound Z46036098]
53	Cc1nccn1-c1ccc(C(C)Nc2ncnc3nc(N)ccc23)cc1 (stereo not shown) [Compound Z1537172697]
-5	Cc1cccc(C(C)C)c1NC(=O)CSc1nc2ccc(Cl)cc2c(=O)n1CC(C)C [Compound Z16658902]
4	Cc1cc(C(=O)CSCc2nc(N)nc(N(C)C)n2)c(C)n1C1CC1 [Compound Z197454120]
6	CC(C)Cn1c(=O)[nH]c(=O)c2c(C(=O)NCc3ccc(CN4CCOCC4)cc3)cc(C3CC3)nc21 [Compound Z338592020]
0	CS(=O)(=O)c1ccc(Cl)c(S(C)(=O)=O)c1 [Compound Z87002147]
5	CC(C)(C)OC(=O)N1CCN(C(=O)c2cc(-c3ccccc3)nc3c2cnn3Cc2ccncc2)CC1 [Compound Z238073806]
7	COc1ccc(Cl)cc1NC(=O)CN(C)c1nc(CN2CCOCC2)nc2sc3c(c12)CCC(C)C3 (stereo not shown) [Compound Z31158506]
-9	CCCN(CCC)S(=O)(=O)c1cccc(S(N)(=O)=O)c1 [Compound Z237751694]
4	Cc1nc2ccc(NC(=O)CNC(=O)c3ccccc3F)cc2s1 [Compound Z33270206]
-10	COc1cc(/C=N/Nc2ccnc3cc(Cl)ccc23)ccc1OC(F)F [Compound Z49626092]
32	CC(C)c1cccc(N(C)C(=O)c2cccnc2S(=O)(=O)C(F)(F)F)c1 [Compound Z959760312]
-4	Oc1c(Br)cccc1CNCc1ncc(-c2ccccc2)o1 [Compound Z1135283259]
5	Cc1ccc(C)c(CN2CCN(c3nc4c(c(=O)[nH]c(=O)n4C)n3C/C=C/c3ccccc3)CC2)c1 [Compound Z237731644]
6	COc1ccc(Nc2nc(NCCN3CCOCC3)nc(Nc3ccc(OC)cc3)n2)cc1 [Compound Z57049315]
6	O=C(NC(C1CC1)C1CC1)C1CCCN1c1ncnc2sccc12 (stereo not shown) [Compound Z1190394303]
22	CN(C)S(=O)(=O)CCCS(=O)(=O)c1nccn1C [Compound Z1134191724]
-10	C#CCN(C1CCS(=O)(=O)C1)S(=O)(=O)c1ccccc1F (stereo not shown) [Compound Z734126534]
-10	CN(C1CCCCC1)S(=O)(=O)N1CCN(c2cn[nH]c(=O)c2Cl)CC1 [Compound Z357945110]
-6	N#Cc1cccc(NC(=O)NCCNC(=O)c2c(F)cccc2F)c1 [Compound Z1189154512]
9	CC(C)n1ncc2cc(C(=O)NCc3ccc(-n4ccnc4)c(F)c3)cnc21 [Compound Z826159196]
15	O=C(NCC(Cc1ccccc1)C(=O)O)c1ccc(-n2ccnc2)cc1 (stereo not shown) [Compound Z1603513622]
-5	CC(c1cc2ccccc2o1)N(C)c1ncnc2c1cnn2C (stereo not shown) [Compound Z328694162]
16	Cc1ccc(-c2cc(C(=O)NC(C)c3ccccn3)c3cnn(C(C)C)c3n2)cc1 (stereo not shown) [Compound Z225035912]

First screening IR (inhibition rate) [%]	SMILES
-9	Cc1ccc(NC(=O)C(C)Sc2ncnc3sc4c(c23)CCC4)cc1 (stereo not shown) [Compound Z20227630]
13	c1ccc(-c2cn(Cc3nc(-c4cccs4)no3)nn2)cc1 [Compound Z1425793872]
43	O=C(Nc1cccc2ncccc12)c1ccc(=O)n(-c2ccc(F)cc2)n1 [Compound Z370787214]
1	CCN(C1CCS(=O)(=O)C1)S(=O)(=O)c1cc(Br)ccc1C (stereo not shown) [Compound Z89358343]
13	CN(C)S(=O)(=O)c1cccc(S(=O)(=O)N(C)C)c1 [Compound Z285953016]
5	CC(=O)[C@@H]1C[C@H](CC(=O)NCCc2ccn(-c3ccc(F)cc3)n2)C1(C)C [Compound Z1675157483]
3	COc1ccc2c(C)cc(N/N=C/c3ccncc3)nc2c1 [Compound Z50018323]
1	O=C(O)/C=C/c1cccc(NS(=O)(=O)/C=C/c2ccccc2)c1 [Compound Z56757962]
-9	N#Cc1c(NC(=O)COC(=O)c2cn(-c3ccccc3)nc2-c2cccnc2)oc(-c2ccccc2)c1-c1ccccc1 [Compound Z56941227]
-12	CCN(CC)C(=O)c1cc(-c2cc(C)oc2C)nc2c1cnn2C(C)C [Compound Z223881508]
2	Cc1cccc(-c2nn(-c3ccccc3)cc2C(=O)N(C)CC(=O)Nc2ccc(N3CCOCC3)cc2)c1 [Compound Z26593505]
-5	NC(=O)c1ccc(CN(C2CC2)S(=O)(=O)c2cccc(Cl)c2)cc1 [Compound Z319895028]
2	NC(=O)c1cnc(NCc2ccnc(N3CCCCC3)c2)c(Cl)c1 [Compound Z729056808]
15	Cc1c(Nc2ccc(/C=C3/C(=O)Nc4ccc(Cl)cc43)cc2)c(=O)n(-c2ccccc2)n1C [Compound Z46051719]
4	CC(Sc1n[nH]c(-c2ccccc2Br)n1)C(=O)Nc1ccc(F)cc1 (stereo not shown) [Compound Z25191222]
-18	NS(=O)(=O)c1cc(S(=O)(=O)c2ccc(Cl)c(S(N)(=O)=O)c2)ccc1Cl [Compound Z56888775]
-15	CC(=O)Nc1ccc(/C=C/C(=O)c2ccccc2-n2cccn2)cc1 [Compound Z839413590]
-4	O=C(Nc1ccc(N2CCOCC2)cc1N1CCOCC1)c1ccc(N2C(=O)CCC2=O)cc1 [Compound Z28028679]
-5	CC(C)n1ncc2c(C(=O)N3CCN(CC(=O)N4CCCCC4)CC3)cc(-c3ccccc3)nc21 [Compound Z147118228]
9	Cc1cc(Cl)cc(Br)c1OCCNCCN(C)C.Cl [Compound Z237479802]
8	Clc1ccc(C2=NN/C(=N/c3ccccn3)SC2)s1 [Compound Z1446648080]
62	CCSc1ccc(C(=O)NCCc2nc(-c3ccco3)n[nH]2)cn1 [Compound Z1174718157]
4	COc1ccc(-c2n[nH]c(CNC(=O)C3=NN(C)C(=O)CC3)n2)cc1 [Compound Z1119644111]
2	CC(C)CNC(=O)CN1CCN(c2nc(-c3ccccn3)nc3scc(-c4ccccc4)c23)CC1 [Compound Z196146788]

First screening IR (inhibition rate) [%]	SMILES
-12	Cl.Fc1c(-c2ccccc2)nc2ccc(Cl)cc2c1-c1ccccc1 [Compound Z223042638]
7	O=C(NCCc1nc2ccccc2[nH]1)c1cc(-c2ccccc2)nc2c1cnn2Cc1ccco1 [Compound Z228153102]
12	O=C(Cc1cn2ccsc2n1)NCCN1C(=O)S/C(=C/c2cccnc2)C1=O [Compound Z27116942]
-19	NC(=O)C(c1ccccc1)N1CCC(CCc2ccc(O)cc2)CC1 (stereo not shown) [Compound Z245304076]
14	O=C(CCn1[nH]c(=O)ccc1=O)Nc1ccc(-n2cnnn2)cc1 [Compound Z51737757]
-17	Cc1cc(Br)ccc1NC(=O)Cn1nc(C)c(S(=O)(=O)N2CCC(C)CC2)c1C [Compound Z107308838]
7	Cc1cc(Br)c(O)c(C(=O)NCCC(=O)N2CCOCC2)c1 [Compound Z596098802]
5	Cc1ccc(-n2c(C)nnc2SCC(=O)Nc2c(C#N)c(C)c(C)n2Cc2ccccc2)cc1 [Compound Z152755906]
46	O=C(Cc1csc(Cc2ccccc2)n1)Nc1cccc(Cn2ccnc2)c1 [Compound Z383523130]
42	Cc1ccccc1C1CCCN1c1ncnc2nc[nH]c12 (stereo not shown) [Compound Z1343261311]
-7	CCN(c1cccnc1)S(=O)(=O)c1cc(S(C)(=O)=O)ccc1Cl [Compound Z1082836308]
-1	Cc1cc(/C(O)=C2\C(=O)C(=O)N(CCN3CCOCC3)C2c2ccc(F)cc2)ccc1OCC(C)C (stereo not shown) [Compound Z56865693]
11	CCN(CC)S(=O)(=O)c1ccc(S(=O)(=O)N(C)C(C)C)cc1 [Compound Z45539789]
4	CN(Cc1cnn(-c2ccccc2)c1)C(=O)c1ccc(Cl)c(S(=O)(=O)N2CCCCCC2)c1 [Compound Z115152726]
2	C/C(=C/c1ccc2ncccc2c1)c1cnccn1 [Compound Z1728623559]
14	N#CC(C#N)=CC1=C2OC(c3ccccc3)=CC(c3ccccc3)=C2CCC1 [Compound Z56760799]
3	Cc1cccc(C)c1Nc1nnc(SCC(=O)NC(Cc2c[nH]c3ccccc23)C(=O)O)s1 (stereo not shown) [Compound Z20162836]
6	CN(C)S(=O)(=O)CCCS(=O)(=O)Cc1cccc(F)c1 [Compound Z1127660834]
-5	CCN(C1CCS(=O)(=O)C1)S(=O)(=O)c1c(C)noc1C (stereo not shown) [Compound Z45467189]
4	Clc1ccc2nc(NC3=NCN(CCN4CCOCC4)CN3)nc(-c3ccccc3)c2c1 [Compound Z57440306]
7	Cc1cc(=O)n2c3ccccc3n(CC(O)CN3CCN(CCOc4ccc(Cl)cc4)CC3)c2c1C#N (stereo not shown) [Compound Z57724322]
5	CC(C)(C)n1cc(C(=O)NCc2ccc(-c3cccnc3)cc2)cn1 [Compound Z1276379731]
